Assay results: the supplement of paper PMC13207355
Where a name gives a salt, the structure may show the parent alone.

Tests used:
Conditions in all cases: exposure time: 72 h
E13 [1] = patient-derived glioblastoma stem cells of classical subtype; experiment: surviving fraction (nuclei count normalised to DMSO); higher = more cells surviving (less toxic)
E21 [2] = patient-derived glioblastoma stem cells of mesenchymal subtype; experiment: as above
E28 [3] = patient-derived glioblastoma stem cells of classical subtype; experiment: as above
E31 [4] = patient-derived glioblastoma stem cells of proneural subtype; experiment: as above
E34 [5] = patient-derived glioblastoma stem cells of proneural subtype; experiment: as above
E57 [6] = patient-derived glioblastoma stem cells of mesenchymal subtype; experiment: as above
FT3469 [7] = normal neural stem cell line; experiment: as above
E13 [8] = experiment: phenotypic distance (Euclidean, principal components) from DMSO controls (arbitrary units); higher = stronger morphological change
E21 [9] = experiment: as above
E28 [10] = experiment: as above
E31 [11] = experiment: as above
E34 [12] = experiment: as above
E57 [13] = experiment: as above
FT3469 [14] = experiment: as above
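Wherever phenotypic distance (Euclidean, principal components) from DMSO controls is given: cell Painting imaging in 384-well plates, CellProfiler features reduced to at least 20 principal components, Euclidean distance versus same-plate DMSO vehicle wells (0.1% v/v), median over six images per well.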
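Wherever surviving fraction (nuclei count normalised to DMSO) is given: nuclei counted by high-content imaging of Hoechst-stained cells in laminin-coated 384-well plates, relative to 0.1% DMSO vehicle wells, with staurosporine as cell-death control.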

C[C@@H]1CN([C@H]2CC[C@](C#N)(c3ccc(F)cc3)CC2)CC[C@]1(C(=O)O)c1ccccc1 [Levocabastine hydrochloride]
Conditions	phenotypic distance	surviving fraction
E13 [1], 4.1 nM	–	0.997
E13 [1], 12.3 nM	–	1.04
E13 [1], 37 nM	–	1.06
E13 [1], 111.1 nM	–	0.914
E13 [1], 333.3 nM	–	1.05
E13 [1], 1000 nM	–	0.985
E13 [1], 3000 nM	–	0.918
E13 [8], 4.1 nM	0.774	–
E13 [8], 12.3 nM	0.599	–
E13 [8], 37 nM	0.564	–
E13 [8], 111.1 nM	0.596	–
E13 [8], 333.3 nM	0.491	–
E13 [8], 1000 nM	0.354	–
E13 [8], 3000 nM	0.712	–
E21 [2], 4.1 nM	–	0.99
E21 [2], 12.3 nM	–	1.15
E21 [2], 37 nM	–	0.977
E21 [2], 111.1 nM	–	1.12
E21 [2], 333.3 nM	–	1.11
E21 [2], 1000 nM	–	1.12
E21 [2], 3000 nM	–	0.854
E21 [9], 4.1 nM	0.745	–
E21 [9], 12.3 nM	0.621	–
E21 [9], 37 nM	0.743	–
E21 [9], 111.1 nM	0.866	–
E21 [9], 333.3 nM	0.582	–
E21 [9], 1000 nM	0.688	–
E21 [9], 3000 nM	3.41	–
E28 [3], 4.1 nM	–	1.07
E28 [3], 12.3 nM	–	1.17
E28 [3], 37 nM	–	1.13
E28 [3], 111.1 nM	–	1.1
E28 [3], 333.3 nM	–	1.1
E28 [3], 1000 nM	–	1.12
E28 [3], 3000 nM	–	0.949
E28 [10], 4.1 nM	0.787	–
E28 [10], 12.3 nM	0.763	–
E28 [10], 37 nM	0.863	–
E28 [10], 111.1 nM	0.374	–
E28 [10], 333.3 nM	0.741	–
E28 [10], 1000 nM	0.713	–
E28 [10], 3000 nM	1.04	–
E31 [4], 4.1 nM	–	1.11
E31 [4], 12.3 nM	–	1.06
E31 [4], 37 nM	–	1.13
E31 [4], 111.1 nM	–	1.01
E31 [4], 333.3 nM	–	1.17
E31 [4], 1000 nM	–	1.06
E31 [4], 3000 nM	–	1.06
E31 [11], 4.1 nM	0.412	–
E31 [11], 12.3 nM	0.744	–
E31 [11], 37 nM	0.868	–
E31 [11], 111.1 nM	0.539	–
E31 [11], 333.3 nM	0.794	–
E31 [11], 1000 nM	0.681	–
E31 [11], 3000 nM	0.779	–
E34 [5], 4.1 nM	–	1.01
E34 [5], 12.3 nM	–	0.8
E34 [5], 37 nM	–	1.25
E34 [5], 111.1 nM	–	0.952
E34 [5], 333.3 nM	–	0.972
E34 [5], 1000 nM	–	0.909
E34 [5], 3000 nM	–	1.22
E34 [12], 4.1 nM	0.554	–
E34 [12], 12.3 nM	1.09	–
E34 [12], 37 nM	0.93	–
E34 [12], 111.1 nM	0.824	–
E34 [12], 333.3 nM	0.742	–
E34 [12], 1000 nM	0.79	–
E34 [12], 3000 nM	0.624	–
E57 [6], 4.1 nM	–	1.09
E57 [6], 12.3 nM	–	1.02
E57 [6], 37 nM	–	0.987
E57 [6], 111.1 nM	–	1.11
E57 [6], 333.3 nM	–	1.08
E57 [6], 1000 nM	–	0.975
E57 [6], 3000 nM	–	0.994
E57 [13], 4.1 nM	1.04	–
E57 [13], 12.3 nM	0.495	–
E57 [13], 37 nM	0.313	–
E57 [13], 111.1 nM	0.928	–
E57 [13], 333.3 nM	4.21	–
E57 [13], 1000 nM	0.708	–
E57 [13], 3000 nM	0.745	–
FT3469 [7], 4.1 nM	–	1.08
FT3469 [7], 12.3 nM	–	1.15
FT3469 [7], 37 nM	–	1.05
FT3469 [7], 111.1 nM	–	1.11
FT3469 [7], 333.3 nM	–	1.04
FT3469 [7], 1000 nM	–	1.07
FT3469 [7], 3000 nM	–	0.784
FT3469 [14], 4.1 nM	0.782	–
FT3469 [14], 12.3 nM	0.792	–
FT3469 [14], 37 nM	0.998	–
FT3469 [14], 111.1 nM	0.719	–
FT3469 [14], 333.3 nM	3.75	–
FT3469 [14], 1000 nM	0.437	–
FT3469 [14], 3000 nM	3.86	–
